How the values were obtained:
hPPARδ = molecular target: T1, hPPARδ (Homo sapiens, UniProt Q03181); assay: in vitro assay on human PPAR subtypes (transactivation): hPPARδ; format: cell-based
T1 construct: (PPARδ: aa 128—C-terminus); expressed in transfected cells; host or cells: HEK293
T1 sequence (Q03181 128-441 limits assumed): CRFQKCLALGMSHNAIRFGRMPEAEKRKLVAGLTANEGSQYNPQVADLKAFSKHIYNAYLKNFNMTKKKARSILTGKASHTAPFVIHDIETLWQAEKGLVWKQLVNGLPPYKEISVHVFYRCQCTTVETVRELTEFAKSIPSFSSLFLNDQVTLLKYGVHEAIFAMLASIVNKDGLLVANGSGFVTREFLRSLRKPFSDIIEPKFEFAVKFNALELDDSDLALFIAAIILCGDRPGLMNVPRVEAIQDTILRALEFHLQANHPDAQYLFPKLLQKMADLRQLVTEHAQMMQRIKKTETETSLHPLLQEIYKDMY
Source text: “Activation” here is defined as the abovementioned downstream response, which in the case of PPAR's is gene transcription. Gene transcription may be measured indirectly as downstream production of proteins reflective of the activation of the particular PPAR subtype under study. Alternatively, an artificial reporter construct may be employed to study the activation of the individual PPAR's expressed in cells. The ligand binding domain of the particular receptor to be studied may be fused to the DNA binding domain of a transcription factor, which produces convenient laboratory readouts, such as the yeast GAL4 transcription factor DNA binding domain. The fusion protein may be transfected into a laboratory cell line along with a Gal4 enhancer, which effects the expression of the luciferase protein. When such a system is transfected into a laboratory cell line, binding of a receptor agonist to the fusion protein will result in light emission.
The PPAR transient transactivation assay may be based on transient transfection into human HEK293 cells of two plasmids encoding a chimeric test protein and a reporter protein respectively. The chimeric test protein may be a fusion of the DNA binding domain (DBD) from the yeast GAL4 transcription factor to the ligand binding domain (LBD) of the human PPAR proteins. The PPAR-LBD moiety harbored in addition to the ligand binding pocket also has the native activation domain, allowing the fusion protein to function as a PPAR ligand dependent transcription factor. The GAL4 DBD will direct the chimeric protein to bind only to Gal4 enhancers (of which none existed in HEK293 cells). The reporter plasmid contained a Gal4 enhancer driving the expression of the firefly luciferase protein. After transfection, HEK293 cells expressed the GAL4-DBD-PPAR-LBD fusion protein. The fusion protein will in turn bind to the Gal4 enhancer controlling the luciferase expression, and do nothing in the absence of ligand. […] The amount of luciferase protein is measured by light emission after addition of the appropriate substrate. […]

FXR = molecular target: T2, FXR (Homo sapiens, UniProt Q96RI1); assay: activity on nuclear receptor FXR
T2 sequence (Q96RI1 1-486): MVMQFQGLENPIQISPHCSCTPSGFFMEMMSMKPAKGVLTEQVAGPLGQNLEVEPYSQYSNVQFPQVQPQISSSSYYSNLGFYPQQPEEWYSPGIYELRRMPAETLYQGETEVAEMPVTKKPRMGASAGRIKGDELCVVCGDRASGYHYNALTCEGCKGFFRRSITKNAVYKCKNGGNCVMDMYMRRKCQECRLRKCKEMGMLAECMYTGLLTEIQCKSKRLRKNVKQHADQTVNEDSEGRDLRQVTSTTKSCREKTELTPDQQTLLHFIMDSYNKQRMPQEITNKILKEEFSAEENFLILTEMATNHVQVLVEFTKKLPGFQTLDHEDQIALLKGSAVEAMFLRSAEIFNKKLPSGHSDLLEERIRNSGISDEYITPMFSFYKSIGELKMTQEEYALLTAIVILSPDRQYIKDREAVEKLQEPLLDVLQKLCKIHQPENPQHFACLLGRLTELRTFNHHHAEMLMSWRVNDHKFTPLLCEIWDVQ

agonist type on PPARδ (hPPARδ): full agonist | selectivity for PPARδ over PPARα (hPPARδ; versus PPARα): at least 100 fold | selectivity for PPARδ over PPARγ (hPPARδ; versus PPARγ): at least 400 fold | activity on FXR (FXR): did not show any
Compound: Cc1cc(OC/C=C(/c2ccc(F)cc2)c2ccc(C#CCN3CCOCC3)cc2)ccc1OCC(=O)O [Compound 1, (E)-[4-[3-(4-Fluorophenyl)-3-[4-[3-(morpholin-4-yl)propynyl]phenyl]allyloxy]-2-methyl-phenoxy]acetic acid]
